Assay results taken from ChEMBL document CHEMBL4811258, “Potent Antimalarials with Development Potential Identified by Structure-Guided Computational Optimization of a Pyrrole-Based Dihydroorotate Dehydrogenase Inhibitor Series” (J Med Chem, 2021).

Experiments:
[1] = Inhibition of Plasmodium falciparum DHODH expressed in Escherichia coli BL21-DE3 using L-dihydroorotate as substrate by steady-state DCIP method
[2] = Inhibition of Plasmodium vivax DHODH expressed in Escherichia coli BL21-DE3 using L-dihydroorotate as substrate by steady-state DCIP method
[3] = target: Dihydroorotate dehydrogenase (quinone), mitochondrial (Homo sapiens, UniProt Q02127); type: ADME
Plasmodium falciparum [4] = test: microbe, parasite or virus in culture; conditions: 3D7, 72 h
Plasmodium falciparum [5] = system: Plasmodium falciparum

Sequence of Dihydroorotate dehydrogenase (quinone), mitochondrial (Q02127 whole entry): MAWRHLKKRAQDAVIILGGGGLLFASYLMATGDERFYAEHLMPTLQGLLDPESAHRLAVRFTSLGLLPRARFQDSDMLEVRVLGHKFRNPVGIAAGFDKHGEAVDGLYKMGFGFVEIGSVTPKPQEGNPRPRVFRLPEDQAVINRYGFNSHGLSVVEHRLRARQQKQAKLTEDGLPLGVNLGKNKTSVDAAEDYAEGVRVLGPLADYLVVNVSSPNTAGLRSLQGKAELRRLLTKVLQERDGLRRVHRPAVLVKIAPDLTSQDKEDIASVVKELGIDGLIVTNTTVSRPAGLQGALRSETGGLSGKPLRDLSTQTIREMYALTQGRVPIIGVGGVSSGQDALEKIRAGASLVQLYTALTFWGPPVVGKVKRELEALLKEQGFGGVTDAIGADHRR

Structure (SMILES)	IC50 [1]	IC50 [2]	IC50 [3]	EC50 (Plasmodium falciparum [4])	EC50 (Plasmodium falciparum [5])
Cc1c(C2(c3ccc(C(F)(F)F)nc3)CC2)c[nH]c1C(=O)N1CC(F)(F)C1	21 nM	17 nM	> 100000 nM	2 nM	
Cc1c(Cc2ccc(C(F)(F)F)nc2F)c[nH]c1C(=O)NCC(F)(F)F	79 nM	53 nM	> 100000 nM	20 nM	
Cc1c(Cc2ccc(C(F)(F)F)nc2)c[nH]c1C(=O)NC(C)c1nc[nH]n1 (stereo in doubt; form 1)	250 nM	110 nM			66 nM
Cc1cc(C(C)NC(=O)c2[nH]cc(C(C)c3ccc(C(F)(F)F)nc3)c2C)no1 (racemic)	79 nM	74 nM	> 100000 nM	3 nM	
Cc1cc(C(C)NC(=O)c2[nH]cc(Cc3ccc(C(F)(F)F)nc3)c2C)n[nH]1 (stereo in doubt; form 1)	100 nM	69 nM			20 nM
Cc1cc(C(C)NC(=O)c2[nH]c(C)c(Cc3ccc(C(F)(F)F)nc3)c2C)no1 (stereo in doubt; form 1)	65 nM	30 nM			12 nM
Cc1c(C2(c3cccc(C(F)(F)F)c3)CC2)c[nH]c1C(=O)NC(C)c1nc[nH]n1 (stereo in doubt; form 1)	110 nM	40 nM			48 nM
Cc1cc(C(C)NC(=O)c2[nH]cc(C(C#N)c3ccc(C(F)(F)F)nc3)c2C)no1 (racemic)	270 nM	410 nM	> 100000 nM	21 nM	
Cc1c(Cc2ccc(C(F)(F)F)nc2)c[nH]c1C(=O)NC(C)c1cc(C#N)[nH]n1 (stereo in doubt; form 1)	120 nM	83 nM			17 nM
CCOC(=O)c1[nH]cc(Cc2ccc(C(F)(F)F)c3ncoc23)c1C	47 nM	16 nM	> 100000 nM	24 nM	
Cc1c(Cc2ccc(C(F)(F)F)cc2F)c[nH]c1C(=O)NC1CC1	44 nM		> 100000 nM		
[2H]C([2H])(c1ccc(C(F)(F)F)nc1)c1c[nH]c(C(=O)NC(C)c2cc(C)on2)c1C (stereo in doubt; form 1)		9.1 nM		4.7 nM	
Cc1c(Cc2ccc(C(F)(F)F)cc2F)c[nH]c1C(=O)NC(C)c1nc[nH]n1 (stereo in doubt; form 1)	35000 nM	73 nM			150 nM
Cc1[nH]c(C(=O)NC(C)c2cn[nH]c2)c(C)c1Cc1ccc(C(F)(F)F)nc1 (stereo in doubt; form 1)	87 nM	88 nM			6 nM
Cc1c(C(=O)NC(C)c2nc[nH]n2)[nH]c(Cl)c1Cc1ccc(C(F)(F)F)nc1 (stereo in doubt; form 2)	200 nM	63 nM			40 nM
Cc1c(Cc2ccc(C(F)(F)F)nc2F)c[nH]c1C(=O)N1CC(F)(F)C1	16 nM	12 nM	> 100000 nM	2.6 nM	
Cc1nc(C(C)NC(=O)c2[nH]cc(Cc3ccc(C(F)(F)F)nc3)c2C)c[nH]1 (racemic)	13000 nM	500 nM	> 100000 nM	380 nM	
COC(c1ccc(C(F)(F)F)nc1)c1c[nH]c(C(=O)NC(C)c2cc(C)on2)c1C (racemic)	150 nM	100 nM	> 100000 nM	40 nM	
Cc1cc(C(C)NC(=O)c2[nH]cc(-c3n[nH]c4cc(C(F)(F)F)ccc34)c2C)no1 (stereo in doubt; form 2)	560 nM	69 nM			62 nM
Cc1[nH]c(C(=O)NC(C)c2cnn(C)c2)c(C)c1Cc1ccc(C(F)(F)F)nc1 (stereo in doubt; form 2)	88 nM	76 nM			17 nM
Cc1c(Cc2ccc(C(F)(F)F)cc2)c[nH]c1C(=O)NC(C)c1cc(Br)no1 (racemic)	380 nM	39 nM	> 100000 nM	260 nM	
Cc1c(Cc2ccc(F)c3ccncc23)c[nH]c1C(=O)NC(C)c1nc[nH]n1 (stereo in doubt; form 1)	44 nM	29 nM			9.5 nM
Cc1c(Cc2ccc(C(F)(F)F)nc2F)c[nH]c1C(=O)NC1CC1	11 nM	5.4 nM	> 100000 nM	3.1 nM	
Cc1c(C(=O)NC2CC2)[nH]c(Cl)c1Cc1ccc(C(F)(F)F)nc1	120 nM	17 nM	> 100000 nM	32 nM	
Cc1c(Cc2ccc(C(F)(F)F)nc2)c[nH]c1C(=O)NC(C)c1nc[nH]n1 (racemic)	260 nM	120 nM			160 nM
Cc1c(Cc2ccc(C(F)(F)F)cc2Br)c[nH]c1C(=O)NC(C)c1nc[nH]n1 (racemic)	950 nM	260 nM	> 100000 nM	990 nM	
Cc1c(C(=O)NC(C)c2nc[nH]n2)[nH]c(Cl)c1Cc1ccc(C(F)(F)F)nc1 (stereo in doubt; form 4)	290 nM	100 nM			130 nM

Structure (SMILES)	IC50 [1]	IC50 [2]	IC50 [3]	EC50 (Plasmodium falciparum [4])	EC50 (Plasmodium falciparum [5])
Cc1[nH]c(C(=O)NC(C)c2nc[nH]n2)c(C)c1Cc1ccc(C(F)(F)F)nc1 (stereo in doubt; form 1)	290 nM	140 nM			140 nM
Cc1cc(C(C)NC(=O)c2[nH]cc(Cc3ccc(F)c4ccncc34)c2C)no1 (racemic)	36 nM	48 nM	> 100000 nM	2.2 nM	
Cc1cc(C(C)NC(=O)c2[nH]cc(Cc3ccc(C(F)(F)F)nc3)c2C)no1 (racemic)		30 nM			9 nM
Cc1c(Cc2ccc(C(F)(F)F)nc2F)c[nH]c1C(=O)NC(C)c1nc[nH]n1 (racemic)	990 nM	730 nM	> 100000 nM	580 nM	
CCOC(=O)c1[nH]cc(Cc2nc3ccccc3o2)c1C	900 nM		> 100000 nM	1600 nM	
Cc1c(-c2c[nH]c3nc(C(F)(F)F)ccc23)c[nH]c1C(=O)NC1CC1	120 nM	10 nM	> 100000 nM	13 nM	
Cc1c(Cc2ccc(C(F)(F)F)nc2)c[nH]c1C(=O)NC(C)c1cc(Br)no1 (racemic)	70 nM	20 nM	> 100000 nM	120 nM	
CCOC(=O)c1[nH]cc(Cc2cccc3ncoc23)c1C	100 nM	13 nM	> 100000 nM	220 nM	
Cc1cc(C(C)NC(=O)c2[nH]cc(C3(c4ccc(C(F)(F)F)nc4)CC3)c2C)no1 (stereo in doubt; form 1)	16 nM	30 nM			11 nM
Cc1c(C2(c3ccc(C(F)(F)F)nc3)CC2)c[nH]c1C(=O)NC(C)c1cc(C(N)=O)[nH]n1 (racemic)	260 nM	180 nM			3000 nM
Cc1c(C2(c3ccc(C(F)(F)F)nc3)CC2)c[nH]c1C(=O)NC1CC1	19 nM	11 nM	> 100000 nM	> 10000 nM	
Cc1[nH]c(C(=O)N[C@H](C)c2cn[nH]c2)c(C#N)c1Cc1ccc(C(F)(F)F)nc1 (stereo in doubt; form 2)	660 nM	440 nM			170 nM
Cc1c(C2(c3ccc(C(F)(F)F)c(F)c3)CC2)c[nH]c1C(=O)NC(C)c1nc[nH]n1 (stereo in doubt; form 1)	110 nM	61 nM			29 nM
Cc1cc(C(C)NC(=O)c2[nH]cc(Cc3cccc4ccncc34)c2C)no1 (racemic)	30 nM	21 nM	> 100000 nM	3.7 nM	
Cc1c(Cc2ccc(C(F)(F)F)nc2)c[nH]c1C(=O)NC(C)c1cc(C(N)=O)[nH]n1 (stereo in doubt; form 1)	35000 nM	230 nM			24 nM
Cc1cc(C(C)NC(=O)c2[nH]cc(-c3c[nH]c4cc(C(F)(F)F)ccc34)c2C)no1 (stereo in doubt; form 2)	660 nM	58 nM	> 100000 nM		85 nM
Cc1nc(C(C)NC(=O)c2[nH]cc(Cc3ccc(C(F)(F)F)nc3)c2C)n[nH]1 (racemic)	680 nM	320 nM	> 100000 nM	380 nM	
Cc1c(Cc2ccc(C(F)(F)F)nc2)c[nH]c1C(=O)NC(C)c1cn[nH]c1 (racemic)	61 nM	48 nM			9 nM
Cc1c(Cc2ccc(C(F)(F)F)nc2)c[nH]c1C(=O)NC(C)c1cnn(C)c1 (racemic)		62 nM			5.5 nM
Cc1c(Cc2nc3ccccc3o2)c[nH]c1C(=O)NC1CC1	670 nM		> 100000 nM	600 nM	
N#Cc1c(Cc2ccc(C(F)(F)F)nc2)c[nH]c1C(=O)NC1CC1	410 nM	430 nM	> 100000 nM	250 nM	
Cc1cc(C(C)NC(=O)c2[nH]cc(Cc3ccc(C(F)(F)F)cc3)c2C)no1 (stereo in doubt; form 1)	46 nM	13 nM			170 nM
Cc1c(Cc2ccc(C(F)(F)F)nc2)c[nH]c1C(=O)NC(C)c1cc(C(N)=O)[nH]n1 (racemic)	650 nM	430 nM			51 nM
Cc1nc(C(C)NC(=O)c2[nH]cc(Cc3ccc(C(F)(F)F)nc3)c2C)no1 (racemic)	370 nM	100 nM	> 100000 nM	190 nM	
Cc1cc(C(C)NC(=O)c2[nH]cc(C(O)c3ccc(C(F)(F)F)nc3)c2C)no1 (racemic)	180 nM	130 nM	> 100000 nM	22 nM	
Cc1cc(C(C)NC(=O)c2[nH]c(C)c(Cc3ccc(C(F)(F)F)nc3)c2C#N)no1 (stereo in doubt; form 2)	95 nM	99 nM			64 nM
Cc1c(-c2n[nH]c3cc(C(F)(F)F)ccc23)c[nH]c1C(=O)NCC(F)(F)F	22000 nM			610 nM	
